Results taken from PMC12116762, “Topobexin targets the Topoisomerase II ATPase domain for beta isoform-selective inhibition and anthracycline cardioprotection” (Nature Communications, 2025).
Where “and” joins values, the source holds several entries; their conditions need not be identical. Equal values may be shown once.

Experiments:
γH2AX [1] = assay: Acute DAU-induced DNA damage (γH2AX) in rabbit LV myocardium; format: in vivo; design: γH2AX in LV myocardium: scale not given here; conditions: for γH2AX in LV myocardium: individual animals
Description: For the determination of γH2aX protein in in vivo experiments, pulverized rabbit LV samples were homogenized in commercial 1× SDS Lysis Buffer (PhosphoSolutions) with phosphatase and protease inhibitor solutions (Thermo Fisher Scientific and Roche, respectively) and boiled at 95 °C for 10 min. Protein concentrations were assessed by the BCA Protein Assay Kit (Sigma-Aldrich), and 85 μg of protein were loaded into Mini-PROTEAN 12% TGX Precast Stain-free Gel (Bio-Rad). After separation, the proteins were transferred onto a nitrocellulose membrane using a Trans-Blot Turbo System (all Bio-Rad). Mouse monoclonal anti-γH2AX (1:800, ab26350, Abcam) was used as the primary antibody, and horseradish peroxidase-conjugated goat anti-mouse immunoglobulin (1:1000, P044701, DAKO) was used as the secondary antibody. The BM Chemiluminescence Blotting Substrate (Roche) and Fusion Solo S coupled with CCD camera (Vilber) were used for signal detection.
Rabbits (n = 24) were divided equally into four groups (n = 6 in each) receiving a single dose as follows: DAU (3 mg/kg, i.v. bolus), saline (1 ml/kg, i.v., the control group), topobexin (9) alone (10 mg/kg, prepared and administered as describe above in the pharmacokinetic study, i.e., in 20 min i.v. infusion) and the combination group (topobexin (9) 10 mg/kg via 20 min i.v. infusion followed by DAU 3 mg/kg as i.v. bolus into the contralateral ear 40 min after the end of topobexin (9) infusion). Based on preliminary data, the experiment was completed 90 min after administration of DAU or saline. The heart was excised and γH2AX as a marker of DNA damage was determined in myocardial homogenates using Western blotting as described above.

caspase 9 = assay: Caspase 9 activity in NVCM (Caspase-Glo); format: cell-based, rat; conditions: for Csp9 activity: independent replicates
Description: (§1) Caspase activity was assessed on NVCM cells using luciferase-based kits for caspase 3/7, 8 and 9 (Caspase-Glo® 3/7, 8 and 9 assay systems; Promega) according to the manufacturer’s instructions on 384-well plates (Greiner Bio-One). Luminescence signal was measured using Tecan M200 multifunctional plate-reader. All measured groups were corrected for total protein concentration (BCA assay) and were expressed as fold change of the signal over corresponding untreated control group. Each presented data point was obtained from distinct sample. Statistical significance was determined using ratio paired t-test, two-tailed.

caspase 8 = assay: Caspase 8 activity in NVCM (Caspase-Glo); format: cell-based, rat; conditions: for Csp8 activity: independent replicates
Description: as §1

γH2AX [2] = assay: γH2AX levels in NVCM (Western blotting); format: cell-based, rat; design: γH2AX level, mean: scale not given here; conditions: for γH2AX level: independent replicates
Description: TOP2B and γH2AX levels in NVCM were determined as follows. After incubation, 4 × 10^5 rat neonatal cardiomyocytes were lysed with 75 µL of 2% SDS in 0.1 M Tris (pH 7.4) and boiled at 95 °C for 5 min. The protein content of each sample was determined by the BCA method and 10 μg of total protein were loaded onto a polyacrylamide gel (7.5% for TOP2B, 12% for γH2AX, Bio-Rad TGX stain-free gels). After approximately 75 min of electrophoresis (150 V, Bio-Rad Mini-PROTEAN Tetra Cell), the gels were transblotted onto nitrocellulose membranes using a semi-dry method in Transblot Turbo (Bio-Rad, USA). The next day, the membranes were blocked for 1 h in 5% skimmed milk powder in 0.05% TBS-T at room temperature (RT). For TOP2 analysis, membranes were incubated with rabbit anti-TOP2A/B (1:2,000, ab109524, Abcam, UK) in 1% BSA in PBS for 1 h at RT, washed 6 times for 5 min in 0.05% TBS-T and then incubated with HRP-labeled F(ab’)2 goat anti-rabbit IgG (1:10,000, ab6112, Abcam, UK) in 0.05% TBS-T for 1 h RT and washed again (6 × 5 min in 0.05% TBS-T). For γH2AX analysis, membranes were incubated with mouse anti-γH2AX (1:5,000; ab26350, Abcam, UK) in 5% BSA in PBS for 1 h at RT, washed with 0.05% PBS-T for 6 × 5 min, incubated with HRP-conjugated anti-mouse IgG (1:40,000; A9044 Sigma Aldrich, USA) in 5% BSA in PBS for 1 h RT and finally washed with 0.05% PBS-T for 6 times 5 min. Target proteins were visualized using a chemiluminescent detection substrate (Clarity Western ECL Substrate, Bio-Rad, USA) and a Gel Doc EZ with Image Lab software (Bio-Rad, USA). Full, uncropped images of all blots present in the manuscript figures are included in the source data file.
Densitometric quantification was performed using Image Lab software (Bio-Rad). Stain-free technology was used to visualize the total protein on the gel and normalize the total protein amount in each line. Each presented data point was obtained from distinct sample.

rabbits = assay: Chronic anthracycline cardiotoxicity model in rabbits
Description: Thirty-eight rabbits were used for this purpose using the following study design. Chronic cardiotoxicity was induced by DAU (3 mg/kg, i.v., once weekly for 10 weeks, n = 11), while the control group received the same volume of saline (1 ml/kg, n = 9) in the same way. […] Animal survival was monitored daily, while body weight change was recorded weekly. The experiment was scheduled to end a week after the last dosing of the compounds studied.
Cardiac damage induced by DAU was quantified by determination of cardiac troponin T in plasma before the 1st, 5th, 8th and 10th doses and at the end of the study using a high sensitivity assay (Elecsys Troponin T high sensitive STAT test, Roche Diagnostics, Switzerland, detection limit of 0.003 μg/L). The area under curve (AUC) of the plasma concentration of cardiac troponin T was determined using GraphPad Prism.
The systolic function of the LV was examined throughout the experiment without invasiveness using echocardiography (Vivid 4, probe 10.5 MHz, GE HeathCare) and invasively at the scheduled end of the experiment using LV catheterization (a Millar catheter 2.3 F, Millar Instruments, USA). In the echocardiography examination, the M-mode was used to determine the dimensions of the LV and the fractional shortening of the LV (LVFS) was calculated as an index of systolic function as described previously[46]. Similarly, from the change in LV pressures determined by catheterization of the LV, dP/dtmax was calculated as an index of systolic function as previously described[47]. Statistical significance was determined using one way ANOVA followed by the Holm–Sidak post hoc test or Kruskal–Wallis ANOVA on ranks followed by Dunn’s post hoc test according to the data distribution.
During necropsy, heart was rapidly excised, washed in cold saline and LV free wall was snap frozen in liquid nitrogen. After homogenization in liquid nitrogen, aliquots (aprox. 50 mg) were stored at -80 °C and used for PCR analysis of molecular markers of cardiotoxicity. Total RNA was isolated from rabbit LV myocardium using TRIzol reagent (Sigma-Aldrich). After reverse transcription using a High-Capacity cDNA Reverse Transcription Kit, qPCR was performed with TaqMan Fast Universal PCR Master Mix on QuantStudio 7 Flex Real-Time PCR System (all from Applied Biosystems, Foster City). […] Mean threshold cycle values were transformed into relative expression using the Pfaffl method. Commercial gene expression assays were obtained from Applied Biosystems and Generi Biotech (Hradec Králové, Czech Republic). The expression data were normalized by Hprt1 expression. Statistical significance was determined using one way ANOVA followed by the Holm–Sidak post hoc test or Kruskal–Wallis ANOVA on ranks followed by Dunn’s post hoc test according to the data distribution.

[3] = Topobexin alone, individual animals
[4] = Topobexin+DAU, individual animals

SMILES: CCCc1cc(=O)oc2c(C(=O)N3CCCc4ccccc43)c(OCCN3CCN(C)CC3)ccc12 [topobexin (9)]
- DAU-induced DNA damage (γH2AX) in LV myocardium (γH2AX [1]; 10 mg/kg before DAU 3 mg/kg, 1.5 h after DAU): effectively prevent induction of DNA damage
- γH2AX in LV myocardium (γH2AX [1]; Topobexin alone 10 mg/kg): 1.55 and 1.42 and 1.45 and 1.03 and 1.17 and 1.33
- γH2AX in LV myocardium (γH2AX [1]; Topobexin+DAU): 1.79 and 1.30 and 1.64 and 0.82 and 1.38 and 2.72
- Csp9 activity, mean (caspase 9; Cmpd 9 10 μM + DAU 1.2 μM): 1.834 fold change
- Csp9 activity (caspase 9; Cmpd 9 10 μM + DAU 1.2 μM): 1.395 fold change and 1.389 fold change and 2.498 fold change and 1.26 fold change and 2.708 fold change and 1.753 fold change
- Csp9 activity, mean (caspase 9; Cmpd 9 10 μM alone): 0.9606 fold change
- Csp9 activity (caspase 9; Cmpd 9 10 μM alone): 0.8436 fold change and 1.03 fold change and 0.994 fold change and 0.6408 fold change and 0.974 fold change and 1.282 fold change
- Csp8 activity, mean (caspase 8; Cmpd 9 10 μM + DAU 1.2 μM): 1.776 fold change
- Csp8 activity (caspase 8; Cmpd 9 10 μM + DAU 1.2 μM): 1.323 fold change and 1.259 fold change and 2.008 fold change and 1.4395 fold change and 2.674 fold change and 1.95 fold change
- Csp8 activity, mean (caspase 8; Cmpd 9 10 μM alone): 1.035 fold change
- Csp8 activity (caspase 8; Cmpd 9 10 μM alone): 0.9315 fold change and 1.0306 fold change and 0.962 fold change and 0.8268 fold change and 1.054 fold change and 1.403 fold change
- γH2AX level, mean (γH2AX [2]; 0.1 µM + DAU 1.2 µM): 39.0271
- γH2AX level (γH2AX [2]; 0.1 µM + DAU 1.2 µM): 36.8376 and 42.68 and 24.34 and 52.2506
- γH2AX level, mean (γH2AX [2]; 0.1 µM alone): 2.32
- γH2AX level (γH2AX [2]; 0.1 µM alone, DAU mean 100): 5.77 and 0.9222 and 2.18 and 0.4088
- γH2AX level, mean (γH2AX [2]; 1 µM + DAU 1.2 µM): 7.0222
- γH2AX level (γH2AX [2]; 1 µM + DAU 1.2 µM): 17.1283 and 3.616 and 2.74 and 4.605
- γH2AX level, mean (γH2AX [2]; 1 µM alone): 3.099
- γH2AX level (γH2AX [2]; 1 µM alone): 8.242 and 0.9663 and 2.352 and 0.8374
- γH2AX level, mean (γH2AX [2]; 10 µM + DAU 1.2 µM): 3.08
- γH2AX level (γH2AX [2]; 10 µM + DAU 1.2 µM): 6.036 and 4.664 and 0.5024 and 1.119
- γH2AX level, mean (γH2AX [2]; 10 µM alone): 2.838
- γH2AX level (γH2AX [2]; 10 µM alone): 3.615 and 3.033 and 2.846 and 1.856
- lowest concentration tested preventing DAU-induced γH2AX (γH2AX [2]; NVCM): 0.1 µM
- Body weight gain (rabbits; [3]): 141.3 and 136.4 and 124.5 and 123.7 and 134.0 and 143.6 and 132.0
- Brain natriuretic peptide mRNA, LV myocardium (rabbits; [3]): 3.72 and 0.42 and 0.55 and 0.81 and 0.90 and 0.28 and 2.33
- Collagen I alpha 1 mRNA (rabbits; [3]): 1.54 and 1.27 and 0.81 and 0.88 and 1.14 and 1.41 and 1.19
- Fibronectin 1 mRNA (rabbits; [3]): 1.41 and 1.30 and 1.55 and 1.58 and 1.78
- LV FS (LMV) (rabbits; [3]): 42.0 and 40.5 and 42.5 and 43.5 and 39.0 and 43.0
- LV dP/dtmax (rabbits; [3]): 7750 and 7165 and 9815 and 8309 and 8311 and 8034 and 7362
- Δ LV FS (LMV) (rabbits; [3]): 1.0 and -1.5 and 2.0 and -1.0 and -2.5
- Body weight gain (rabbits; [4]): 104.9 and 134.7 and 121.0 and 128.3 and 113.2 and 106.8 and 114.9 and 101.0 and 104.7
- Brain natriuretic peptide mRNA, LV myocardium (rabbits; [4]): 1.55 and 3.15 and 0.69 and 1.65 and 1.04 and 0.65 and 5.19 and 1.00 and 2.01 and 1.22 and 0.48
- Collagen I alpha 1 mRNA (rabbits; [4]): 0.77 and 1.31 and 1.34 and 2.10 and 1.65 and 1.81 and 2.59 and 0.95 and 1.66 and 0.86 and 1.09
- Fibronectin 1 mRNA (rabbits; [4]): 0.87 and 1.85 and 1.50 and 1.99 and 1.56 and 2.18 and 3.87 and 1.34 and 1.94 and 1.25 and 1.18
- LV FS (LMV) (rabbits; [4]): 42.0 and 43.5 and 39.3 and 42.3 and 44.0 and 42.8 and 40.0 and 41.0 and 43.8
- LV dP/dtmax (rabbits; [4]): 8562 and 8147 and 6788 and 7928 and 8340 and 7337 and 7402 and 8558 and 8112 and 8066 and 7973
- Δ LV FS (LMV) (rabbits; [4]): -1.5 and 3.0 and -2.3 and 0.5 and 4.0 and -0.3 and -4.0 and -1.0 and 0.0 and 2.3 and 2.0
- tolerability (rabbits; alone or with DAU, weekly for 10 weeks): well tolerated
- Body weight gain (rabbits; topobexin + DAU): matched the DAU group
- LV expression of BNP (rabbits; topobexin + DAU): prevented by co-administration of topobexin (9)
- LV systolic function (echocardiography) (rabbits; topobexin + DAU): effectively prevented the DAU-induced decrease in LV systolic function
- cardiomyocyte damage, plasma cTnT (rabbits; topobexin + DAU): effectively prevented by topobexin (9)
- survival (rabbits; topobexin + DAU): survived until the scheduled end of the experiment
- Body weight gain (rabbits; topobexin alone): did not differ from the control group

SMILES: COc1cccc2c1C(=O)c1c(O)c3c(c(O)c1C2=O)C[C@@](O)(C(C)=O)C[C@@H]3O[C@H]1C[C@H](N)[C@H](O)[C@H](C)O1 [DAU, daunorubicin, reference compound]
- γH2AX in LV myocardium (γH2AX [1]; DAU 3 mg/kg alone, 1.5 h): 10.11 and 5.83 and 6.97 and 6.98 and 3.35 and 7.46
- Csp9 activity, mean (caspase 9; DAU 1.2 μM alone): 2.579 fold change
- Csp9 activity (caspase 9; DAU 1.2 μM alone): 1.742 fold change and 1.782 fold change and 3.523 fold change and 1.858 fold change and 4.0027 fold change and 2.565 fold change
- Csp8 activity, mean (caspase 8; DAU 1.2 μM alone): 2.2056 fold change
- Csp8 activity (caspase 8; DAU 1.2 μM alone): 1.777 fold change and 1.7129 fold change and 3.182 fold change and 1.952 fold change and 2.3428 fold change and 2.2669 fold change
- γH2AX level, mean (γH2AX [2]; DAU 1.2 μM alone): 100
- γH2AX level (γH2AX [2]; DAU 1.2 μM alone): 113.699 and 89.6209 and 76.0928 and 120.587
- premature death (rabbits; DAU 3 mg/kg weekly, 10 weeks): one premature death
- Body weight gain (rabbits; DAU alone, individual animals): 111.6 and 102.0 and 134.7 and 116.1 and 99.5 and 98.2 and 106.3 and 117.5 and 112.5 and 97.6 and 92.2
- Brain natriuretic peptide mRNA, LV myocardium (rabbits; DAU alone, individual animals): 3.43 and 7.71 and 11.23 and 1.53 and 3.70 and 14.27 and 5.99 and 15.03 and 2.12 and 2.78
- Collagen I alpha 1 mRNA (rabbits; DAU alone, individual animals): 1.89 and 3.79 and 5.05 and 1.80 and 2.15 and 7.04 and 4.33 and 8.95 and 1.98 and 2.03
- Fibronectin 1 mRNA (rabbits; DAU alone, individual animals): 2.75 and 11.42 and 16.69 and 2.86 and 6.76 and 33.96 and 11.80 and 25.41 and 3.99 and 2.01
- LV FS (LMV) (rabbits; DAU alone, individual animals): 35.5 and 28.3 and 21.8 and 37.5 and 22.5 and 33.0 and 26.0 and 35.8
- LV dP/dtmax (rabbits; DAU alone, individual animals): 4037 and 6946 and 6956 and 5174 and 3773 and 6731 and 5382 and 6442
- Δ LV FS (LMV) (rabbits; DAU alone, individual animals): -7.5 and -6.8 and -15.3 and -22.3 and -4.5 and -6.0 and -18.5 and -9.0 and -16.5 and -17.5 and -9.2
